Results reported in the NIST ThermoML archive (doi:10.1021/je034203p).

Assay: xn = mol fraction of the nth substance listed
Conditions: 298.15 K, 101.3 kPa, Liquid; for viscosity: Capillary tube (Ostwald / Ubbelohde) method

ClC(Cl)=C(Cl)Cl [tetrachloroethene] + CCCCO
Conditions | mass density [kg/m3] | viscosity [mPa·s]
x1 = 0.0901 | 885.2 | 2.255
x1 = 0.1823 | 964.3 | 1.986
x1 = 0.2766 | 1043.5 | 1.717
x1 = 0.3727 | 1122.5 | 1.496
x1 = 0.4713 | 1201.7 | 1.314
x1 = 0.5727 | 1283 | 1.158
x1 = 0.6759 | 1364.2 | 1.045
x1 = 0.7809 | 1444.6 | 0.9519
x1 = 0.8891 | 1526 | 0.8894
x1 = 1 | 1610.2 | 0.8474

ClC(Cl)=C(Cl)Cl [tetrachloroethene] + CCCO
Conditions | mass density [kg/m3] | viscosity [mPa·s]
x1 = 0.0749 | 879 | 1.79
x1 = 0.1541 | 958.4 | 1.632
x1 = 0.2379 | 1038.5 | 1.488
x1 = 0.3269 | 1117.4 | 1.35
x1 = 0.4214 | 1197.5 | 1.218
x1 = 0.5229 | 1278.9 | 1.11
x1 = 0.6302 | 1360.9 | 1.011
x1 = 0.745 | 1442.8 | 0.9253
x1 = 0.8679 | 1525.7 | 0.8657
x1 = 1 | 1610.2 | 0.8474

ClC(Cl)=C(Cl)Cl [tetrachloroethene] + CCO
Conditions | mass density [kg/m3] | viscosity [mPa·s]
x1 = 0.0593 | 868.1 | 1.073
x1 = 0.1243 | 949.6 | 1.04
x1 = 0.1957 | 1029.4 | 1.007
x1 = 0.2746 | 1111.3 | 0.9767
x1 = 0.3619 | 1191.8 | 0.9475
x1 = 0.4601 | 1273.7 | 0.9189
x1 = 0.57 | 1356 | 0.8939
x1 = 0.6944 | 1440 | 0.8729
x1 = 0.8364 | 1524.9 | 0.8551
x1 = 1 | 1610.2 | 0.8474

ClC(Cl)=C(Cl)Cl [tetrachloroethene] + CCOC(C)=O
Conditions | mass density [kg/m3] | viscosity [mPa·s]
x1 = 0.0962 | 961.2 | 0.4946
x1 = 0.1932 | 1030.8 | 0.5525
x1 = 0.291 | 1100.6 | 0.6095
x1 = 0.3899 | 1171 | 0.6633
x1 = 0.4894 | 1241.8 | 0.711
x1 = 0.5901 | 1313.6 | 0.7481
x1 = 0.6911 | 1385.7 | 0.7788
x1 = 0.7937 | 1460 | 0.8078
x1 = 0.8964 | 1534.5 | 0.8295
x1 = 1 | 1610.2 | 0.8474

ClC(Cl)=C(Cl)Cl [tetrachloroethene] + CO
Conditions | mass density [kg/m3] | viscosity [mPa·s]
x1 = 0.042 | 868.7 | 0.5644
x1 = 0.0897 | 950.1 | 0.5806
x1 = 0.1446 | 1030.1 | 0.5981
x1 = 0.2082 | 1112 | 0.6209
x1 = 0.2828 | 1192.6 | 0.6449
x1 = 0.372 | 1274.4 | 0.6751
x1 = 0.4795 | 1355.9 | 0.7069
x1 = 0.6123 | 1439.7 | 0.7412
x1 = 0.7804 | 1524.3 | 0.7875
x1 = 1 | 1610.2 | 0.8474

ClC(Cl)=C(Cl)Cl [tetrachloroethene] + COC(C)=O
Conditions | mass density [kg/m3] | viscosity [mPa·s]
x1 = 0.0796 | 989.2 | 0.4237
x1 = 0.1628 | 1054.7 | 0.4749
x1 = 0.25 | 1120.7 | 0.5226
x1 = 0.3415 | 1188.6 | 0.5729
x1 = 0.4373 | 1255.3 | 0.6243
x1 = 0.5388 | 1322.7 | 0.6708
x1 = 0.6452 | 1393.1 | 0.7166
x1 = 0.7573 | 1464.2 | 0.7614
x1 = 0.8749 | 1535.4 | 0.8038
x1 = 1 | 1610.2 | 0.8474
